Consider two molecules from publication PMC10384657 (Virus Research, 2023).

Data set [1] deals with MPER25c peptide (S2 membrane proximal region derived). It counts as binding, SARS-CoV-2.
For data set [2], the system named is Vero E6 cells. Conditions: 72 h.
The subject of data set [3] is Vero E6/TMPRSS2. The settings on record: 72 h.
Data set [4] relates to SARS-CoV-2.

In the case of `CC[C@H](C)[C@H](NC(=O)[C@H](CCC(N)=O)NC(=O)[C@H](CC(C)C)NC(=O)[C@H](C)NC(=O)[C@H](C)NC(=O)CNC(=O)[C@H](C)NC(=O)CNC(=O)[C@H](Cc1ccccc1)NC(C)=O)C(=O)N1CCC[C@H]1C(=O)N[C@@H](Cc1ccccc1)C(=O)N[C@@H](C)C(=O)N[C@@H](CCSC)C(=O)N[C@@H](CCC(N)=O)C(=O)N[C@@H](CCSC)C(=O)N[C@@H](C)C(=O)N[C@@H](C)C(=O)N[C@@H](CCCNC(=N)N)C(=O)N[C@@H](Cc1ccccc1)C(N)=O` [PN19Y→A904], the “fold lower binding activity to immobilized MPER25c than PN19” value in data set [1] was 2-3 fold. The “CC50 (mean ± SD)” value in data set [2] is over 100 µM.

Take `CC[C@H](C)[C@H](NC(=O)[C@H](CCC(N)=O)NC(=O)[C@H](CC(C)C)NC(=O)[C@H](C)NC(=O)[C@H](C)NC(=O)CNC(=O)[C@H](C)NC(=O)CNC(=O)[C@H](Cc1ccccc1)NC(C)=O)C(=O)N1CCC[C@H]1C(=O)N[C@@H](Cc1ccccc1)C(=O)N[C@@H](C)C(=O)N[C@@H](CCSC)C(=O)N[C@@H](CCC(N)=O)C(=O)N[C@@H](CCSC)C(=O)N[C@@H](C)C(=O)N[C@@H](Cc1ccc(O)cc1)C(=O)N[C@@H](CCCNC(=N)N)C(=O)N[C@@H](Cc1ccccc1)C(N)=O` [PN19]: the “binding to immobilized MPER25c (in words)” value in data set [1] was “binds to immobilized MPER25c”. The same molecule returned a ka in data set [1] of 410.9 M⁻¹ s⁻¹. In addition, the “CC50 (mean ± SD)” value in data set [2] and in data set [3] was over 100 µM throughout. For the same molecule, the “fold reduction of the expected IC50 value of PN19 produced by MPER25” value in data set [4] turned out to be 48 fold.
